Here are results for 24 compounds from US11053226B2, “KRAS G12C inhibitors and methods of using the same” (Amgen Inc., priority 2018, dated 2021).

The target of the experiment is GDP-bound KRAS protein (aa 1-169), containing both G12C and C118A amino acid substitutions (Homo sapiens (Human), UniProt P01116, C118A/G12C). In words: Coupled Nucleotide Exchange Assay. It is filed as biochemical. As to the method:
For compounds in Table 9, the following assay conditions were employed:
Coupled Nucleotide Exchange Assay:
The assay plates were then read on a PerkinElmer EnVision Multilabel Reader, using AlphaScreen® technology, and data were analyzed using a 4-parameter logistic model to calculate IC50 values.

[1] abbreviates: first Coupled Exchange column, compound pre-incubation probably 5 min (rest of head not shown; b435 lists 5 min, 2 hours or 20 hours), read-out: Coupled Exchange IC50.
Setting [2] is: second Coupled Exchange column, read-out: Coupled Exchange IC50.
The mark [3] stands for this setting: third Coupled Exchange column, compound pre-incubation probably 20 hours (rest of head not shown; b435 lists 5 min, 2 hours or 20 hours), read-out: Coupled Exchange IC50.
The mark [4] stands for this setting: read-out: Coupled Exchange IC50 (2 h), 2 h compound pre-incubation.
The mark [5] stands for this setting: read-out: Coupled Exchange IC50 (20 h), 20 h compound pre-incubation.
The mark [6] stands for this setting: read-out: Coupled Exchange IC50 (5 min), 5 min compound pre-incubation.

Read-outs that look alike come from different tables or passages of the source.

Sequence of GDP-bound KRAS protein (aa 1-169), containing both G12C and C118A amino acid substitutions (P01116 other isoform, or with tags, fused parts or gaps G12C/C118A): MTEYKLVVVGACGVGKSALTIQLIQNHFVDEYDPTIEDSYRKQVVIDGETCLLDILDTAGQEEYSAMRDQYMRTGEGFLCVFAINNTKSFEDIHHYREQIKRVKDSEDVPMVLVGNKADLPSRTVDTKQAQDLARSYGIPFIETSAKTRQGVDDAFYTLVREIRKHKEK

As usually defined, the IC50 is the concentration needed to halve the response being measured. As to `C=CC(=O)N1CC(NC(=O)Cn2cc(CC(=O)N3CCOC4CC(N(C)C)CCC43)c3cc(Br)ccc32)C1` (centres unmarked) [Example 329], the IC50 under setting [1] was found to be 85.8 µM.
Consider `C=CC(=O)N1CC(NC(=O)Cn2c(C)c(-c3cccnc3Br)c3cc(Cl)ccc32)C1` [Example 305], for which the IC50 by setting is: under setting [2], 2.98 µM; under setting [3], 0.81 µM.
On to `C=CC(=O)N1CC(NC(=O)Cn2ccc3ccc(Br)cc32)C1` [Example 182], for which the IC50 under setting [4] was greater than 250 µM and the IC50 under setting [5] is greater than 250 µM.
On to `C=CC(=O)N1CC(NC(=O)Cn2c(C)c(CN3CCN(c4ccc(C#N)cn4)CC3)c3cc(Br)ccc32)C1` [Example 315], for which the IC50 under setting [2] amounted to 6.22 µM.
As for `C=CC(=O)N1CC(NC(=O)Cn2ccc3cc(C#N)ccc32)C1` [Example 191], the IC50 was greater than 250 µM under setting [4] and greater than 250 µM under setting [5].
For the compound `C=CC(=O)N1CC(NC(=O)Cn2c(-c3ccncc3)cc3ccccc32)C1` [Example 215], the 50% inhibitory concentration (IC50) was greater than 250 µM under setting [4] and greater than 250 µM under setting [5].
Consider `C=CC(=O)N1CC(NC(=O)Cn2c(C)c(-c3cnccc3C3=CCCCC3)c3cc(Cl)cc(C)c32)C1` [Example 335], for which the IC50 under setting [1] is 0.8 µM.
Regarding `C=CC(=O)N1CC(NC(=O)Cn2ccc3c(C)c(Br)ccc32)C1` [Example 349], the IC50 reads like this: under setting [1], greater than 250 µM; under setting [3], 3.21 µM.
`C=CC(=O)N1CC(NC(=O)Cn2cc(Br)c3cc([N+](=O)[O-])ccc32)C1` [Example 233]: the concentration for half-maximal inhibition (IC50) by setting is: under setting [6], greater than 250 µM; under setting [4], 11.4 µM; under setting [5], 1.58 µM.
As to `C=CC(=O)N1CC(NC(=O)CN2Cc3c(n(C(C)=O)c4ccc(Br)cc34)C2)C1` [Example 242], the IC50 reads like this: under setting [4], greater than 250 µM; under setting [5], 7.66 µM.
On to `C=CC(=O)N1CC(N(C)C(=O)Cn2c(C)c(-c3cncnc3C(C)C)c3cc(Cl)cc(C)c32)C1` [Example 339], for which the IC50 under setting [1] stood at 2.88 µM.
Regarding `C=CC(=O)N1CC(NC(=O)Cn2cc(I)c3ccccc32)C1` [Example 212], the half-maximal inhibitory concentration (IC50) runs as follows: under setting [6], greater than 250 µM; under setting [4], 27.4 µM; under setting [5], 6.8 µM.
As to `C=CC(=O)N1CC(NC(=O)Cn2c(C)c(-c3ccccc3Cc3ccccc3)c3cc(Cl)cc(C)c32)C1` [Example 336], under setting [1], the IC50 stood at 2.11 µM.
Take `C=CC(=O)N1CC(NC(=O)Cn2c(C(=O)OC)cc3c(Cl)c(Cl)ccc32)C1` [Example 220]: the IC50 was 12.2 µM under setting [4] and 1.89 µM under setting [5].
`C=CC(=O)N1CC(C)(NC(=O)Cn2ccc3cc(Br)ccc32)C1` [Example 352]: the 50% inhibitory concentration (IC50) reads like this: under setting [1], greater than 250 µM; under setting [3], 25 µM.
As for `C=CC(=O)N1CC(NC(=O)Cn2ccc3cc(SC)ccc32)C1` [Example 266], the IC50 under setting [4] is greater than 250 µM and the IC50 under setting [5] was greater than 62.5 µM.
For the compound `C=CC(=O)N1CC(NC(=O)Cn2cc(C(=O)C(=O)O)c3ccccc32)C1` [Example 201], the IC50 is greater than 250 µM under setting [4] and greater than 250 µM under setting [5].
Consider `C=CC(=O)N1CC(NC(=O)Cn2cc(CC(=O)NCC3Cc4ccccc4CN3C)c3cc(Br)ccc32)C1` (centres unmarked) [Example 331], for which, under setting [1], the IC50 turned out to be 22.4 µM.
With `C=CC(=O)N1CC(NC(=O)Cn2c(C#N)c(I)c3cc(Br)ccc32)C1` [Example 304], the half-maximal inhibitory concentration (IC50) runs as follows: under setting [2], 7.24 µM; under setting [3], 1.24 µM.
With `C=CC(=O)N1CC(N(C)C(=O)Cn2c(C)cc3cc(Br)ccc32)C1` [Example 348], the concentration for half-maximal inhibition (IC50) is 235 µM under setting [1] and 1.22 µM under setting [3].
In the case of `C=CC(=O)N1CC(NC(=O)Cn2cc(-c3cc[nH]n3)c3ccc(-c4ccccc4Cl)cc32)C1` [Example 229], the IC50 stood at 18.9 µM under setting [4] and 5.4 µM under setting [5].
Taken in the same sequence, the figures for `C=CC(=O)N1CC(NC(=O)Cn2ccc3cc(C4CC4)ccc32)C1` [Example 217] were greater than 250 µM and greater than 125 µM.
Take `C=CC(=O)N1CC(NC(=O)Cn2cc(-c3cccc(C#N)c3)c3cc(Br)ccc32)C1` [Example 216]: the 50% inhibitory concentration (IC50) reads like this: under setting [4], 12.9 µM; under setting [5], 3 µM.
For `C=CC(=O)N1CC(NC(=O)Cn2c3ccccc3c3ccc(Cl)nc32)C1` [Example 280], the IC50 runs as follows: under setting [2], greater than 250 µM; under setting [3], greater than 62.5 µM.
